Article PMC7944397 (ACS infectious diseases, 2021)
Where two headings read alike, the source gives them in different places.

Key:
MERS-CoV M^pro [1] = target: T1, MERS-CoV M^pro (Human betacoronavirus 2c EMC/2012, UniProt K0BWD0); assay: biochemical
cathepsin L = cathepsin L (Homo sapiens, UniProt P07711); assay: FRET enzymatic assay; assay type: biochemical
MERS-CoV M^pro [2] = target: T1, MERS-CoV M^pro; assay type: biochemical; settings: read-out: KI

Chain of cathepsin L (P07711 114-288): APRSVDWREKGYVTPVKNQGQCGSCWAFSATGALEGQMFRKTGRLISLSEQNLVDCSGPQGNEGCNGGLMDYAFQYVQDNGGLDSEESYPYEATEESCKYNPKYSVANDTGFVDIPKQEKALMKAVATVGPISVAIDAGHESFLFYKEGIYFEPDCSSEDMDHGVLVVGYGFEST
Chain of cathepsin L (P07711 292-333): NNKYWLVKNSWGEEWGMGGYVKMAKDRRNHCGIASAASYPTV
T1 sequence (K0BWD0 3248-3553 limits assumed): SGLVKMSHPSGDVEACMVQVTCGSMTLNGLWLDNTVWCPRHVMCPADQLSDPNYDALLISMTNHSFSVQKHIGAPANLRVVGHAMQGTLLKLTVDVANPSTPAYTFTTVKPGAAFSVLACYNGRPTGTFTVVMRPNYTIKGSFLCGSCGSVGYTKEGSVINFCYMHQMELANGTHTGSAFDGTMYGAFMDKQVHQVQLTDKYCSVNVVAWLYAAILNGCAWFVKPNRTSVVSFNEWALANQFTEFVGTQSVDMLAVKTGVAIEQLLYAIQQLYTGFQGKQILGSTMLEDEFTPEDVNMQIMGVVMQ

| Compound | Ki (MERS-CoV M^pro [1]) | IC50 (cathepsin L; individual value only in figure) | IC50 (cathepsin L) | KI (inactivation) (MERS-CoV M^pro [2]) |
| --- | --- | --- | --- | --- |
| CCCC(NC(=O)[C@H](CC(C)C)NC(=O)OCc1ccccc1)C(=O)C(=O)NCc1ccccn1 (some centres unmarked) [calpain inhibitor XII] | 1320 ± 70 nM | calpain inhibitors II and XII and GC-376 had potent inhibition against cathepsin L | – | – |
| CC(C)C[C@H](NC(=O)[C@@H]1O[C@H]1C(=O)O)C(=O)NCCCCN=C(N)N [E-64, reference compound] | – | – | 5.45 nM | – |
| CC(C)(C)NC(=O)N[C@H](C(=O)N1C[C@H]2[C@@H]([C@H]1C(=O)NC(CC1CCC1)C(=O)C(N)=O)C2(C)C)C(C)(C)C (some centres unmarked) [boceprevir] | – | – | 153 nM | 1650 ± 120 nM |
